≈ marks a conversion by molar mass, not a printed value. Starred links: 1 amine or outer side, 2 acyl side, 3 side chain; linkers in the order of their positions; H or OH if unused. Positions of bridges follow the written chain, without caps; N, C: chain ends. Non-standard residues stand in square brackets, D forms with d. Residues, ends and D or L forms follow the SMILES beside them. *: point of attachment. pTerphenylCO(4''-OnC5H11) = CCCCCOc1ccc(-c2ccc(-c3ccc(C(=O)*)cc3)cc2)cc1; Orn(4R-OH,5R-OH) = O=C([C@H](C[C@@H](O)[C@@H](O)N[*:3])N[*:1])[*:2]; hTyr(3S-OH,4S-OH) = N[C@H](C(=O)O)[C@H](O)[C@@H](O)c1ccc(O)cc1; Pro(3S-OH,4S-Me) = C[C@H]1CN[C@H](C(=O)O)[C@H]1O; Hyp = O=C(O)[C@@H]1C[C@@H](O)CN1
How the values were obtained:
Format in all cases: functional
Pichia kudriavzevii [1] = assay: Antifungal activity against Candida krusei ATCC 6258 bloodstream forms assessed as time to achieve 90% fungal growth reduction at 8 mg/L by time-kill analysis
Pichia kudriavzevii [2] = assay: Antifungal activity against Candida krusei ATCC 6258 bloodstream forms assessed as time to achieve 99.9% fungal growth reduction at 0.12 mg/L by time-kill analysis
Pichia kudriavzevii [3] = assay: Antifungal activity against Candida krusei ATCC 6258 bloodstream forms assessed as time to achieve 99% fungal growth reduction at 2 mg/L by time-kill analysis
Pichia kudriavzevii [4] = assay: Antifungal activity against Candida krusei ATCC 6258 bloodstream forms assessed as time to achieve 99.9% fungal growth reduction at 0.5 mg/L by time-kill analysis
Pichia kudriavzevii [5] = assay: Antifungal activity against Candida krusei ATCC 6258 bloodstream forms assessed as time to achieve 90% fungal growth reduction at 2 mg/L by time-kill analysis
Pichia kudriavzevii [6] = assay: Fungicidal activity against Candida krusei CY118 bloodstream forms after 24 hrs by time-kill analysis; settings: CY118, 24 h
Pichia kudriavzevii [7] = assay: Antifungal activity against Candida krusei ATCC 6258 bloodstream forms assessed as time to achieve 99.9% fungal growth reduction at 2 mg/L by time-kill analysis
Pichia kudriavzevii [8] = assay: Antifungal activity against Candida krusei ATCC 6258 bloodstream forms assessed as time to achieve 50% fungal growth reduction at 0.12 mg/L by time-kill analysis
Pichia kudriavzevii [9] = assay: Antifungal activity against Candida krusei ATCC 6258 bloodstream forms assessed as time to achieve 99% fungal growth reduction at 0.12 mg/L by time-kill analysis
Pichia kudriavzevii [10] = assay: Fungicidal activity against Candida krusei CK18 bloodstream forms after 24 hrs by time-kill analysis; settings: CK18, 24 h
Pichia kudriavzevii [11] = assay: Antifungal activity against Candida krusei CK1 bloodstream forms after 24 hrs by time-kill analysis; settings: CK1, 24 h
Pichia kudriavzevii [12] = assay: Fungicidal activity against Candida krusei EU123 bloodstream forms after 24 hrs by time-kill analysis; settings: EU123, 24 h
Pichia kudriavzevii [13] = assay: Fungicidal activity against Candida krusei ATCC 6258 bloodstream forms after 24 hrs by time-kill analysis; settings: ATCC 6258, 24 h
Pichia kudriavzevii [14] = assay: Antifungal activity against Candida krusei ATCC 6258 bloodstream forms after 24 hrs by time-kill analysis; settings: ATCC 6258, 24 h
Pichia kudriavzevii [15] = assay: Antifungal activity against Candida krusei ATCC 6258 bloodstream forms assessed as time to achieve 99.9% fungal growth reduction at 8 mg/L by time-kill analysis
Pichia kudriavzevii [16] = assay: Fungicidal activity against Candida krusei CK1 bloodstream forms after 24 hrs by time-kill analysis; settings: CK1, 24 h
Pichia kudriavzevii [17] = assay: Antifungal activity against Candida krusei ATCC 6258 bloodstream forms assessed as time to achieve 90% fungal growth reduction at 0.5 mg/L by time-kill analysis
Pichia kudriavzevii [18] = assay: Antifungal activity against Candida krusei CK2 bloodstream forms after 24 hrs by time-kill analysis; settings: CK2, 24 h
Pichia kudriavzevii [19] = assay: Antifungal activity against Candida krusei ATCC 6258 bloodstream forms assessed as time to achieve 90% fungal growth reduction at 0.12 mg/L by time-kill analysis
Pichia kudriavzevii [20] = assay: Antifungal activity against Candida krusei EU123 bloodstream forms after 24 hrs by time-kill analysis; settings: EU123, 24 h
Pichia kudriavzevii [21] = assay: Fungicidal activity against Candida krusei EU220 bloodstream forms after 24 hrs by time-kill analysis; settings: EU220, 24 h
Pichia kudriavzevii [22] = assay: Antifungal activity against Candida krusei ATCC 6258 bloodstream forms assessed as time to achieve 50% fungal growth reduction at 0.5 mg/L by time-kill analysis
Pichia kudriavzevii [23] = assay: Antifungal activity against Candida krusei ATCC 6258 bloodstream forms assessed as time to achieve 50% fungal growth reduction at 8 mg/L by time-kill analysis
Pichia kudriavzevii [24] = assay: Antifungal activity against Candida krusei ATCC 6258 bloodstream forms assessed as minimum concentration producing >= 100% growth reduction after 48 hrs by M27-A3 microdilution method; settings: ATCC 6258, 48 h
Pichia kudriavzevii [25] = assay: Antifungal activity against Candida krusei CY118 bloodstream forms after 24 hrs by time-kill analysis; settings: CY118, 24 h
Pichia kudriavzevii [26] = assay: Fungicidal activity against Candida krusei ATCC 6258 bloodstream forms after 48 hrs by M27-A3 microdilution method
Pichia kudriavzevii [27] = assay: Antifungal activity against Candida krusei ATCC 6258 bloodstream forms assessed as minimum concentration producing >= 100% growth reduction after 24 hrs by M27-A3 microdilution method; settings: ATCC 6258, 24 h
Pichia kudriavzevii [28] = assay: Fungicidal activity against Candida krusei CK6 bloodstream forms after 24 hrs by time-kill analysis; settings: CK6, 24 h
Pichia kudriavzevii [29] = assay: Antifungal activity against Candida krusei ATCC 6258 bloodstream forms assessed as time to achieve 50% fungal growth reduction at 2 mg/L by time-kill analysis
Pichia kudriavzevii [30] = assay: Antifungal activity against Candida krusei CK18 bloodstream forms after 24 hrs by time-kill analysis; settings: CK18, 24 h
Pichia kudriavzevii [31] = assay: Antifungal activity against Candida krusei CK6 bloodstream forms after 24 hrs by time-kill analysis; settings: CK6, 24 h
Pichia kudriavzevii [32] = assay: Antifungal activity against Candida krusei ATCC 6258 bloodstream forms assessed as time to achieve 99% fungal growth reduction at 8 mg/L by time-kill analysis
Pichia kudriavzevii [33] = assay: Antifungal activity against Candida krusei EU220 bloodstream forms after 24 hrs by time-kill analysis; settings: EU220, 24 h
Pichia kudriavzevii [34] = assay: Fungicidal activity against Candida krusei CK2 bloodstream forms after 24 hrs by time-kill analysis; settings: CK2, 24 h
Pichia kudriavzevii [35] = assay: Antifungal activity against Candida krusei ATCC 6258 bloodstream forms assessed as minimum concentration producing >= 50% growth reduction after 24 hrs by M27-A3 microdilution method; settings: ATCC 6258, 24 h
Pichia kudriavzevii [36] = assay: Antifungal activity against Candida krusei ATCC 6258 bloodstream forms assessed as minimum concentration producing >= 50% growth reduction after 48 hrs by M27-A3 microdilution method; settings: ATCC 6258, 48 h
Pichia kudriavzevii [37] = assay: Antifungal activity against Candida krusei ATCC 6258 bloodstream forms assessed as time to achieve 99% fungal growth reduction at 0.5 mg/L by time-kill analysis

How did the Time (Pichia kudriavzevii [1]) turn out when `CCCCCOc1ccc(-c2ccc(-c3ccc(C(=O)N[C@H]4C[C@@H](O)[C@@H](O)NC(=O)[C@@H]5[C@@H](O)[C@@H](C)CN5C(=O)[C@H]([C@@H](C)O)NC(=O)[C@H]([C@H](O)[C@@H](O)c5ccc(O)cc5)NC(=O)[C@@H]5C[C@@H](O)CN5C(=O)[C@H]([C@@H](C)O)NC4=O)cc3)cc2)cc1` [ANIDULAFUNGIN] ({pTerphenylCO(4''-OnC5H11)}-[Orn(4R-OH,5R-OH)]T[Hyp][hTyr(3S-OH,4S-OH)]T[Pro(3S-OH,4S-Me)]; lactam 1-C) was run?
Its Time is 6.9 h.

And the Time (Pichia kudriavzevii [2])?
Its Time is greater than 48 h.

What about the Time (Pichia kudriavzevii [3]) of the same compound?
The Time was 12.7 h.

And the Time (Pichia kudriavzevii [4])?
The Time was greater than 48 h.

What about the Time (Pichia kudriavzevii [5]) of the same compound?
Its Time is 6.4 h.

And the MFC (Pichia kudriavzevii [6])?
Its MFC is 8 µg/mL (≈ 7.02 µM).

What about the Time (Pichia kudriavzevii [7]) of the same compound?
The Time was 19.1 h.

What about the Time (Pichia kudriavzevii [8]) of the same compound?
Its Time is 7.7 h.

And the Time (Pichia kudriavzevii [9])?
The Time was greater than 48 h.

What about the MFC (Pichia kudriavzevii [10]) of the same compound?
The MFC was 0.5 µg/mL (≈ 0.438 µM).

What about the MIC (Pichia kudriavzevii [11]) of the same compound?
The MIC was 0.12 µg/mL (≈ 0.105 µM).

What about the MFC (Pichia kudriavzevii [12]) of the same compound?
The MFC was 0.5 µg/mL (≈ 0.438 µM).

What about the MFC (Pichia kudriavzevii [13]) of the same compound?
Its MFC is 0.25 µg/mL (≈ 0.219 µM).

And the MIC (Pichia kudriavzevii [14])?
The MIC was 0.03 µg/mL (≈ 0.0263 µM).

What about the Time (Pichia kudriavzevii [15]) of the same compound?
The Time was 20.68 h.

And the MFC (Pichia kudriavzevii [16])?
The MFC was 0.5 µg/mL (≈ 0.438 µM).

And the Time (Pichia kudriavzevii [17])?
Its Time is 22.4 h.

What about the MIC (Pichia kudriavzevii [18]) of the same compound?
The MIC was 0.06 µg/mL (≈ 0.0526 µM).

What about the Time (Pichia kudriavzevii [19]) of the same compound?
The Time was 25.5 h.

And the MIC (Pichia kudriavzevii [20])?
Its MIC is 0.12 µg/mL (≈ 0.105 µM).

And the MFC (Pichia kudriavzevii [21])?
Its MFC is 0.12 µg/mL (≈ 0.105 µM).

What about the Time (Pichia kudriavzevii [22]) of the same compound?
The Time was 6.7 h.

And the Time (Pichia kudriavzevii [23])?
The Time was 2.1 h.

What about the MIC50 (Pichia kudriavzevii [24]) of the same compound?
Its MIC50 is 0.25 µg/mL (≈ 0.219 µM).

What about the MIC90 (Pichia kudriavzevii [24]) of the same compound?
The MIC90 was 0.5 µg/mL (≈ 0.438 µM).

And the MIC (Pichia kudriavzevii [25])?
The MIC was 0.5 µg/mL (≈ 0.438 µM).

What about the MFC50 (Pichia kudriavzevii [26]) of the same compound?
Its MFC50 is 0.25 µg/mL (≈ 0.219 µM).

And the MFC90 (Pichia kudriavzevii [26])?
Its MFC90 is 0.5 µg/mL (≈ 0.438 µM).

What about the MFC (Pichia kudriavzevii [26]; Pichia kudriavzevii, ATCC 6258, 48 h) of the same compound?
Its MFC is 0.12 µg/mL (≈ 0.105 µM).

What about the MIC50 (Pichia kudriavzevii [27]) of the same compound?
The MIC50 was 0.12 µg/mL (≈ 0.105 µM).

And the MIC90 (Pichia kudriavzevii [27])?
The MIC90 was 0.25 µg/mL (≈ 0.219 µM).

And the MFC (Pichia kudriavzevii [28])?
Its MFC is 0.25 µg/mL (≈ 0.219 µM).

And the Time (Pichia kudriavzevii [29])?
The Time was 1.9 h.

What about the MIC (Pichia kudriavzevii [30]) of the same compound?
Its MIC is 0.12 µg/mL (≈ 0.105 µM).

And the MIC (Pichia kudriavzevii [31])?
Its MIC is 0.12 µg/mL (≈ 0.105 µM).

What about the Time (Pichia kudriavzevii [32]) of the same compound?
Its Time is 13.8 h.

What about the MIC (Pichia kudriavzevii [33]) of the same compound?
Its MIC is 0.12 µg/mL (≈ 0.105 µM).

And the MFC (Pichia kudriavzevii [34])?
Its MFC is 0.5 µg/mL (≈ 0.438 µM).

What about the MIC50 (Pichia kudriavzevii [35]) of the same compound?
The MIC50 was 0.12 µg/mL (≈ 0.105 µM).

What about the MIC90 (Pichia kudriavzevii [35]) of the same compound?
Its MIC90 is 0.12 µg/mL (≈ 0.105 µM).

What about the MIC50 (Pichia kudriavzevii [36]) of the same compound?
The MIC50 was 0.12 µg/mL (≈ 0.105 µM).

What about the MIC90 (Pichia kudriavzevii [36]) of the same compound?
Its MIC90 is 0.25 µg/mL (≈ 0.219 µM).

And the Time (Pichia kudriavzevii [37])?
Its Time is greater than 48 h.

From ChEMBL document CHEMBL1649488, “In vitro activities of echinocandins against Candida krusei determined by three methods: MIC and minimal fungicidal concentration measurements and time-kill studies” (2009)
